In assay [1] the target is GCN2 kinase (Homo sapiens, UniProt Q9P2K8). The assay is described as follows: GCN2 enzyme inhibition assay (Transcreener ADP2 fluorescence polarization). In kind it is biochemical. Particulars: compounds of Formula II; 280 μM ATP, 4 nM GCN2 kinase. In a few lines: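 Run at 25 °C in 25 mM Tris-HCl pH 7.5, 50 mM NaCl, 10 mM MgCl2, 1 mM DTT with 4 nM GCN2, 280 μM ATP and 200 μM (RS)7 peptide; compound (0–8 μM final) preincubated 10 min, reaction 1 h. ADP read by antibody/tracer FP; IC50 and Ki(app) from tight-binding fit.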
For orientation: Fluorescence polarisation rises when a labelled molecule tumbles more slowly, as on binding a larger partner.

In assay [2] the target is intracellular GCN2 (phosphorylation of the GCN2 substrate eIF2α) (Homo sapiens, UniProt Q9P2K8). The assay is described as follows: GCN2 cellular inhibition assay (AlphaScreen SureFire P-eIF2α Ser51, borrelidin-treated U2OS cells). In kind it is cell-based. The conditions noted are these: compounds of Formula II; biomarker assay, phosphorylated eIF2α Ser51 in borrelidin-treated U2OS cells. The gist of the method:
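Compound effect on GCN2 is gauged by eIF2α Ser51 phosphorylation in borrelidin-challenged U2OS cells (10 μM, 1 h). Top compound level is 40 μM final.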
For orientation: Bead proximity is the source of the signal in Alpha formats.

The structures appear in SMILES notation.

Sequence of intracellular GCN2 (phosphorylation of the GCN2 substrate eIF2α) (Q9P2K8 whole entry): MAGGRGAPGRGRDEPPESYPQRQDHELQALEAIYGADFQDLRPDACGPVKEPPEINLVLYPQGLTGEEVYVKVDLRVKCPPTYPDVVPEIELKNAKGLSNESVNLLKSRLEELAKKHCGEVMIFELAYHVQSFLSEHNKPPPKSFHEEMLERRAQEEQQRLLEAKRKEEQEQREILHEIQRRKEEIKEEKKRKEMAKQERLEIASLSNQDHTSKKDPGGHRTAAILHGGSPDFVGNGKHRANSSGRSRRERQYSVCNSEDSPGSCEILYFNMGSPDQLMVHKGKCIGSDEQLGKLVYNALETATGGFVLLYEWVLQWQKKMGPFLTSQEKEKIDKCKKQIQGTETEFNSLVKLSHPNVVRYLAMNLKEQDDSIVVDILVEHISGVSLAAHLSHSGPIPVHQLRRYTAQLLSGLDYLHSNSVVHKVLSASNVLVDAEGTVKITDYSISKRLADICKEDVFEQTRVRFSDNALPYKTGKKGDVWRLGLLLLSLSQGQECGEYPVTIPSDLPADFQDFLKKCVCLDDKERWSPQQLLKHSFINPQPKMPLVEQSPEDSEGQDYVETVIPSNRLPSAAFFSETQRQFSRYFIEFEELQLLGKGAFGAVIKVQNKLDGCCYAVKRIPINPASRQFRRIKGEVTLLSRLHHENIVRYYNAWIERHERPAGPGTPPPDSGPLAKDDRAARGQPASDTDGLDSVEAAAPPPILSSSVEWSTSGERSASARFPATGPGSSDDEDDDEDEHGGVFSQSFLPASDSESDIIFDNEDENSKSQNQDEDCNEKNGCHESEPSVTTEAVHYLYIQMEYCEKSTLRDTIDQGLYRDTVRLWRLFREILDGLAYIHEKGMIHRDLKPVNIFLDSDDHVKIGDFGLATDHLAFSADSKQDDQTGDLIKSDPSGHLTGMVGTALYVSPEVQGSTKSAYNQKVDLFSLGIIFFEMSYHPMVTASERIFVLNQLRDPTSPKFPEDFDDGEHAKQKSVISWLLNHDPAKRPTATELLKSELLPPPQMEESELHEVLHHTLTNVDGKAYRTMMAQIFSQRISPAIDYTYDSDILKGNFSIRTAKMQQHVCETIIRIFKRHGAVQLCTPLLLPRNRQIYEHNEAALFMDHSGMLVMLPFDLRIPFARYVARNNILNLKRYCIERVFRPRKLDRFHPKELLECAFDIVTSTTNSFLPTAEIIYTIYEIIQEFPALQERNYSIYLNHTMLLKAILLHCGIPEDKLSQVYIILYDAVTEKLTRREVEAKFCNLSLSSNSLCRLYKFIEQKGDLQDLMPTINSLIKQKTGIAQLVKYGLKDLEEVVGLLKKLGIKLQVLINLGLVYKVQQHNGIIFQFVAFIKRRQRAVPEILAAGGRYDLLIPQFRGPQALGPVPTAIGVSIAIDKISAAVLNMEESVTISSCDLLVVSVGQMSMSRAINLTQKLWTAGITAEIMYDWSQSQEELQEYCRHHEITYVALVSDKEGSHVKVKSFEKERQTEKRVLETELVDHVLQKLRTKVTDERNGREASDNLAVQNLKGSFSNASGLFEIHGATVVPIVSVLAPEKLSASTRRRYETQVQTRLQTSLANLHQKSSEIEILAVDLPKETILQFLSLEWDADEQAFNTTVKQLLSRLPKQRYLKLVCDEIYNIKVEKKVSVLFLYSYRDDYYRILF
Sequence of GCN2 kinase (Q9P2K8 whole entry): as above

As usually defined, the Ki is the dissociation constant of the complex between target and ligand, obtained from inhibition or displacement. For orientation: IC50 means the concentration at which inhibition is half-maximal. Low readings indicate greater potency in that assay, high ones weaker potency in that assay. Regarding `CC1C(CNS(C)(=O)=O)CC(F)(F)CN1c1cc(-c2cnc3ccc(C(F)F)nn23)ncn1` (single isomer, unassigned) [II-360, N-((1-(6-(6-(Difluoromethyl)imidazo[1,2-b]pyridazin-3-yl)pyrimidin-4-yl)-5,5-difluoro-2-methylpiperidin-3-yl)methyl)methanesulfonamide], the Ki in assay [1] fell in the range of 10 to 1000 nM. For the same compound, in assay [2], the IC50 was 500 to 5000 nM.
In turn, `C[C@H]1[C@@H](CNS(C)(=O)=O)CC(F)(F)CN1c1cc(-c2cnc3ccc(C(F)F)nn23)ncn1` (single isomer, unassigned) [II-361] returned a Ki in assay [1] of less than 10 nM. Moreover, the IC50 in assay [2] was less than 500 nM.
For `CC1C(CNS(C)(=O)=O)N(C)CCN1c1cc(-c2cnc3ccc(C(F)F)nn23)ncn1` (single isomer, unassigned) [II-364, N-((4-(6-(6-(difluoromethyl)imidazo[1,2-b]pyridazin-3-yl)pyrimidin-4-yl)-1,3-dimethylpiperazin-2-yl)methyl)methanesulfonamide] the same measures were less than 10 nM and less than 500 nM.
Taken in the same sequence, the figures for `CC1C(CNS(C)(=O)=O)OCCN1c1cc(-c2cnc3ccc(C(F)F)nn23)ncn1` (single isomer, unassigned) [II-372, N-((4-(6-(6-(Difluoromethyl)imidazo[1,2-b]pyridazin-3-yl)pyrimidin-4-yl)-3-methylmorpholin-2-yl)methyl)methanesulfonamide] were greater than 1000 nM and greater than 5000 nM.
In turn, `CC1C(NS(C)(=O)=O)CCCN1c1cc(-c2cnc3ccc(C(F)F)nn23)ncn1` (single isomer, unassigned) [II-374, N-[1-[6-[6-(Difluoromethyl)imidazo[1,2-b]pyridazin-3-yl]pyrimidin-4-yl]-2-methyl-3-piperidyl]methanesulfonamide] had a Ki in assay [1] of 10 to 1000 nM. For the same compound, in assay [2], the IC50 lay within 500 to 5000 nM.
Taken in the same sequence, the figures for `CC1C(NS(C)(=O)=O)CCCN1c1cc(-c2cnc3ccc(C(F)F)nn23)ncn1` (single isomer, unassigned) [II-377, N-[1-[6-[6-(Difluoromethyl)imidazo[1,2-b]pyridazin-3-yl]pyrimidin-4-yl]-2-methyl-3-piperidyl]methanesulfonamide] were 10 to 1000 nM and less than 500 nM.
For `CC1(F)CCN(c2cc(-c3cnc4ccc(C(F)F)nn34)ncn2)CC1CNS(C)(=O)=O` (single isomer, unassigned) [II-388, N-((1-(6-(6-(Difluoromethyl)imidazo[1,2-b]pyridazin-3-yl)pyrimidin-4-yl)-4-fluoro-4-methylpiperidin-3-yl)methyl)methanesulfonamide] the same measures were 10 to 1000 nM and 500 to 5000 nM.
In assay [1], `CC1(F)CCN(c2cc(-c3cnc4ccc(C(F)F)nn34)ncn2)CC1CNS(C)(=O)=O` (single isomer, unassigned) [II-389, N-((1-(6-(6-(Difluoromethyl)imidazo[1,2-b]pyridazin-3-yl)pyrimidin-4-yl)-4-fluoro-4-methylpiperidin-3-yl)methyl)methanesulfonamide] returned a Ki of 10 to 1000 nM. This compound also came in with an IC50 in assay [2] of 500 to 5000 nM.
For `C[C@H]1[C@@H](CO)CCCN1c1cc(-c2cnc3ccc(C(F)F)nn23)ncn1` (single isomer, unassigned) [II-392] the same measures were 10 to 1000 nM and 500 to 5000 nM.
Taken in the same sequence, the figures for `CC1C(CO)CCCN1c1cc(-c2cnc3ccc(C(F)F)nn23)ncn1` (single isomer, unassigned) [II-393, (1-(6-(6-(Difluoromethyl)imidazo[1,2-b]pyridazin-3-yl)pyrimidin-4-yl)-2-methylpiperidin-3-yl)methanol] were 10 to 1000 nM and greater than 5000 nM.
For the compound `CS(=O)(=O)N[C@H]1CCCN(c2cc(-c3cnc4ccc(C(F)F)nn34)ncn2)C1` (single isomer, unassigned) [II-404], in assay [1], the Ki lay within 10 to 1000 nM. This compound also registered an IC50 in assay [2] of 500 to 5000 nM.
Regarding `CS(=O)(=O)N[C@@H]1CCCN(c2cc(-c3cnc4ccc(C(F)F)nn34)ncn2)C1` (single isomer, unassigned) [II-405], in assay [1], the Ki lay within 10 to 1000 nM. This compound also had an IC50 in assay [2] of 500 to 5000 nM.
Take `CC1C(CO)OCCN1c1cc(-c2cnc3ccc(C(F)F)nn23)ncn1` (single isomer, unassigned) [II-413, (4-(6-(6-(Difluoromethyl)imidazo[1,2-b]pyridazin-3-yl)pyrimidin-4-yl)-3-methylmorpholin-2-yl)methanol]: the Ki in assay [1] is greater than 1000 nM. This compound also registered an IC50 in assay [2] greater than 5000 nM.
Taken in the same sequence, the figures for `CC1C(CO)OCCN1c1cc(-c2cnc3ccc(C(F)F)nn23)ncn1` (single isomer, unassigned) [II-414, (4-(6-(6-(Difluoromethyl)imidazo[1,2-b]pyridazin-3-yl)pyrimidin-4-yl)-3-methylmorpholin-2-yl)methanol] were 10 to 1000 nM and greater than 5000 nM.
For the compound `CCC1C(CNS(C)(=O)=O)CCCN1c1cc(-c2cnc3ccc(C(F)F)nn23)ncn1` (single isomer, unassigned) [II-416], in assay [1], the Ki is less than 10 nM. In assay [2], this compound had an IC50 of less than 500 nM.
Regarding `CCC1C(CNS(C)(=O)=O)CCCN1c1cc(-c2cnc3ccc(C(F)F)nn23)ncn1` (single isomer, unassigned) [II-417], the Ki in assay [1] is 10 to 1000 nM. For the same compound, the IC50 in assay [2] fell in the range of 500 to 5000 nM.
In assay [1], `CC1CC(CNS(C)(=O)=O)CN(c2cc(-c3cnc4ccc(C(F)F)nn34)ncn2)C1` (single isomer, unassigned) [II-436, N-((1-(6-(6-(Difluoromethyl)imidazo[1,2-b]pyridazin-3-yl)pyrimidin-4-yl)-5-methylpiperidin-3-yl)methyl)methanesulfonamide] had a Ki of 10 to 1000 nM. In assay [2], the IC50 is 500 to 5000 nM.
Taken in the same sequence, the figures for `CC1CC(CNS(C)(=O)=O)CN(c2cc(-c3cnc4ccc(C(F)F)nn34)ncn2)C1` (single isomer, unassigned) [II-437, N-((1-(6-(6-(Difluoromethyl)imidazo[1,2-b]pyridazin-3-yl)pyrimidin-4-yl)-5-methylpiperidin-3-yl)methyl)methanesulfonamide] were less than 10 nM and less than 500 nM.
Regarding `CC1C(CNS(C)(=O)=O)C(F)(F)C(C)CN1c1cc(-c2cnc3ccc(C(F)F)nn23)ncn1` (single isomer, unassigned) [II-469, N-((1-(6-(6-(Difluoromethyl)imidazo[1,2-b]pyridazin-3-yl)pyrimidin-4-yl)-4,4-difluoro-2,5-dimethylpiperidin-3-yl)methyl)methanesulfonamide], the Ki in assay [1] fell in the range of 10 to 1000 nM. In addition, the IC50 in assay [2] fell in the range of 500 to 5000 nM.
`CC1C(CNS(C)(=O)=O)C(F)(F)C(C)CN1c1cc(-c2cnc3ccc(C(F)F)nn23)ncn1` (single isomer, unassigned) [II-470, N-((1-(6-(6-(Difluoromethyl)imidazo[1,2-b]pyridazin-3-yl)pyrimidin-4-yl)-4,4-difluoro-2,5-dimethylpiperidin-3-yl)methyl)methanesulfonamide] showed a Ki in assay [1] of 10 to 1000 nM. The IC50 in assay [2] lay in the range of 500 to 5000 nM.
Compound `CC1C(CNS(C)(=O)=O)C(F)(F)C(C)CN1c1cc(-c2cnc3ccc(C(F)F)nn23)ncn1` (single isomer, unassigned) [II-471, N-((1-(6-(6-(Difluoromethyl)imidazo[1,2-b]pyridazin-3-yl)pyrimidin-4-yl)-4,4-difluoro-2,5-dimethylpiperidin-3-yl)methyl)methanesulfonamide] had a Ki in assay [1] of 10 to 1000 nM. For the same compound, the IC50 in assay [2] is greater than 5000 nM.
On to `C[C@H]1[C@@H](CNS(C)(=O)=O)C(F)(F)[C@@H](C)CN1c1cc(-c2cnc3ccc(C(F)F)nn23)ncn1` (single isomer, unassigned) [II-472], for which the Ki in assay [1] was less than 10 nM. In assay [2], this compound came in with an IC50 of less than 500 nM.
Taken in the same sequence, the figures for `CC1C(CNS(C)(=O)=O)N(C2CC2)CCN1c1cc(-c2cnc3ccc(C(F)F)nn23)ncn1` (single isomer, unassigned) [II-478, N-((1-Cyclopropyl-4-(6-(6-(difluoromethyl)imidazo[1,2-b]pyridazin-3-yl)pyrimidin-4-yl)-3-methylpiperazin-2-yl)methyl)methanesulfonamide] were 10 to 1000 nM and 500 to 5000 nM.
For `CC1C(CNS(C)(=O)=O)N(C2CC2)CCN1c1cc(-c2cnc3ccc(C(F)F)nn23)ncn1` (single isomer, unassigned) [II-479, N-((1-Cyclopropyl-4-(6-(6-(difluoromethyl)imidazo[1,2-b]pyridazin-3-yl)pyrimidin-4-yl)-3-methylpiperazin-2-yl)methyl)methanesulfonamide] the same measures were less than 10 nM and less than 500 nM.
As to `CC1C(CNS(C)(=O)=O)OC(C)(C)CN1c1cc(-c2cnc3ccc(C(F)F)nn23)ncn1` (single isomer, unassigned) [II-484, N-((4-(6-(6-(Difluoromethyl)imidazo[1,2-b]pyridazin-3-yl)pyrimidin-4-yl)-3,6,6-trimethylmorpholin-2-yl)methyl)methanesulfonamide], the Ki in assay [1] fell in the range of 10 to 1000 nM. The compound also had an IC50 in assay [2] of 500 to 5000 nM.
Taken in the same sequence, the figures for `CC1C(CNS(C)(=O)=O)OC(C)(C)CN1c1cc(-c2cnc3ccc(C(F)F)nn23)ncn1` (single isomer, unassigned) [II-489, N-((4-(6-(6-(Difluoromethyl)imidazo[1,2-b]pyridazin-3-yl)pyrimidin-4-yl)-3,6,6-trimethylmorpholin-2-yl)methyl)methanesulfonamide] were greater than 1000 nM and greater than 5000 nM.
With `C[C@H]1[C@@H](CNS(C)(=O)=O)OC(C)(C)CN1c1cc(-c2cnc3ccc(C(F)F)nn23)ncn1` (single isomer, unassigned) [II-490], the Ki in assay [1] was less than 10 nM. For the same compound, the IC50 in assay [2] is less than 500 nM.
